Experimental findings from the supplement of paper PMC10307832 are described below.

Assay in all cases: relative viability (nuclei count vs DMSO), 5 days (fraction); higher = more cells survive
Compound in the test “GSK-J4 + Dasatinib”: CCOC(=O)CCNc1cc(N2CCc3ccccc3CC2)nc(-c2ccccn2)n1 [GSK-J4] + Cc1nc(Nc2ncc(C(=O)Nc3c(C)cccc3Cl)s2)cc(N2CCN(CCO)CC2)n1 [Dasatinib] (partner 0.075 µM)
The procedure, abridged:
(§1)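 Lung cancer cell lines in 1536-well plates were dosed by pin tool the day after seeding, either with one drug alone or with a fixed anchor-drug dose plus five library-drug doses (not always all listed) in √10 steps. After 5 days, cells were fixed and their nuclei stained in one step (final 0.05% Triton X-100, 1% formaldehyde, 1 ug/ml Hoechst), then counted on 4× images. Relative viability is the nuclei count in treated wells divided by that in vehicle wells. Values are medians of duplicate plates.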

Compound in the test “AZ3146 + Bortezomib”: CN1CCC(CC1)OC2=CC(=C(C=C2)NC3=NC=C4C(=N3)N(C(=O)N4C)C5CCCC5)OC [AZ3146] + CC(C)C[C@H](NC(=O)[C@H](Cc1ccccc1)NC(=O)c1cnccn1)B(O)O [Bortezomib] (partner 0.002 µM)
The procedure, abridged: as §1

Compound in the test “AZ3146 + Tozasertib”: CN1CCC(CC1)OC2=CC(=C(C=C2)NC3=NC=C4C(=N3)N(C(=O)N4C)C5CCCC5)OC [AZ3146] + Cc1cc(Nc2cc(N3CCN(C)CC3)nc(Sc3ccc(NC(=O)C4CC4)cc3)n2)n[nH]1 [Tozasertib] (partner 0.1 µM)
Summed up: as §1

Compound in the test “AZ3146 + Pemetrexed”: CN1CCC(CC1)OC2=CC(=C(C=C2)NC3=NC=C4C(=N3)N(C(=O)N4C)C5CCCC5)OC [AZ3146] + Nc1nc2[nH]cc(CCc3ccc(C(=O)N[C@@H](CCC(=O)O)C(=O)O)cc3)c2c(=O)[nH]1 [Pemetrexed] (partner 0.2 µM)
The procedure, abridged: as §1

On to NCI-H460, for which the relative viability was determined as 0.524 with GSK-J4 + Dasatinib (first compound 0.5 µM); 0.445 with GSK-J4 + Dasatinib (first compound 1.581 µM); 0.471 with GSK-J4 + Dasatinib (first compound 5 µM); 0.37 with GSK-J4 + Dasatinib (first compound 15.81 µM); 0.363 with GSK-J4 + Dasatinib (first compound 50 µM); 1.14 with AZ3146 + Bortezomib (first compound 0.08 µM). The relative viability was found to be 0.92 with AZ3146 + Bortezomib (first compound 0.253 µM); 1.02 with AZ3146 + Bortezomib (first compound 0.8 µM); 0.97 with AZ3146 + Bortezomib (first compound 2.53 µM); 0.543 in the test with AZ3146 + Bortezomib (first compound 8 µM); 0.277 with AZ3146 + Tozasertib (first compound 0.08 µM); 0.422 with AZ3146 + Tozasertib (first compound 0.253 µM). Moreover, the relative viability is 0.118 with AZ3146 + Tozasertib (first compound 0.8 µM); 0.0719 in the test with AZ3146 + Tozasertib (first compound 2.53 µM); 0.0801 with AZ3146 + Tozasertib (first compound 8 µM); 0.0552 in the test with AZ3146 + Pemetrexed (first compound 0.08 µM); 0.0628 with AZ3146 + Pemetrexed (first compound 0.253 µM); 0.0797 with AZ3146 + Pemetrexed (first compound 0.8 µM). In addition, the relative viability with AZ3146 + Pemetrexed (first compound 2.53 µM) turned out to be 0.06; with AZ3146 + Pemetrexed (first compound 8 µM) it was 0.0682.
Consider NCI-H520, for which the relative viability with GSK-J4 + Dasatinib (first compound 0.5 µM) was 0.217; with GSK-J4 + Dasatinib (first compound 1.581 µM) it was 0.191; with GSK-J4 + Dasatinib (first compound 5 µM) it was 0.154; with GSK-J4 + Dasatinib (first compound 15.81 µM) it was 0.125; in the test with GSK-J4 + Dasatinib (first compound 50 µM), 0.184; in the test with AZ3146 + Bortezomib (first compound 0.08 µM), 0.355. Also, the relative viability with AZ3146 + Bortezomib (first compound 0.253 µM) was found to be 0.677; in the test with AZ3146 + Bortezomib (first compound 0.8 µM), 0.614; with AZ3146 + Bortezomib (first compound 2.53 µM), 0.673; with AZ3146 + Bortezomib (first compound 8 µM), 0.583; in the test with AZ3146 + Tozasertib (first compound 0.08 µM), 0.345; with AZ3146 + Tozasertib (first compound 0.253 µM) it was 0.433. For the same cell line, the relative viability amounted to 0.371 with AZ3146 + Tozasertib (first compound 0.8 µM); 0.423 with AZ3146 + Tozasertib (first compound 2.53 µM); 0.408 with AZ3146 + Tozasertib (first compound 8 µM); 0.843 with AZ3146 + Pemetrexed (first compound 0.08 µM); 0.735 in the test with AZ3146 + Pemetrexed (first compound 0.253 µM); 0.647 in the test with AZ3146 + Pemetrexed (first compound 0.8 µM). Besides, the relative viability with AZ3146 + Pemetrexed (first compound 2.53 µM) is 0.543; in the test with AZ3146 + Pemetrexed (first compound 8 µM), 0.422.
With NCI-H596, the relative viability with GSK-J4 + Dasatinib (first compound 0.5 µM) was 0.562; with GSK-J4 + Dasatinib (first compound 1.581 µM), 0.611; with GSK-J4 + Dasatinib (first compound 5 µM) it was 0.645; with GSK-J4 + Dasatinib (first compound 15.81 µM) it was 0.497; in the test with GSK-J4 + Dasatinib (first compound 50 µM) it was 0.599; with AZ3146 + Bortezomib (first compound 0.08 µM) it was 0.961. Moreover, the relative viability came out at 1.05 with AZ3146 + Bortezomib (first compound 0.253 µM); 1.07 in the test with AZ3146 + Bortezomib (first compound 2.53 µM); 0.935 in the test with AZ3146 + Bortezomib (first compound 8 µM); 0.949 with AZ3146 + Tozasertib (first compound 0.08 µM); 0.972 in the test with AZ3146 + Tozasertib (first compound 0.253 µM); 0.979 with AZ3146 + Tozasertib (first compound 0.8 µM). The relative viability came out at 0.728 in the test with AZ3146 + Tozasertib (first compound 2.53 µM); 0.524 with AZ3146 + Tozasertib (first compound 8 µM); 0.478 with AZ3146 + Pemetrexed (first compound 0.08 µM); 0.449 with AZ3146 + Pemetrexed (first compound 0.253 µM); 0.574 in the test with AZ3146 + Pemetrexed (first compound 0.8 µM); 0.486 in the test with AZ3146 + Pemetrexed (first compound 2.53 µM). In addition, the relative viability with AZ3146 + Pemetrexed (first compound 8 µM) came to 0.556.
Regarding NCI-H647, the relative viability amounted to 0.2 with GSK-J4 + Dasatinib (first compound 0.5 µM); 0.164 with GSK-J4 + Dasatinib (first compound 1.581 µM); 0.0733 in the test with GSK-J4 + Dasatinib (first compound 5 µM); 0.285 in the test with GSK-J4 + Dasatinib (first compound 15.81 µM); 0.131 with GSK-J4 + Dasatinib (first compound 50 µM); 0.918 with AZ3146 + Bortezomib (first compound 0.08 µM). For the same cell line, the relative viability came to 0.941 in the test with AZ3146 + Bortezomib (first compound 0.253 µM); 0.996 in the test with AZ3146 + Bortezomib (first compound 0.8 µM); 1.21 in the test with AZ3146 + Bortezomib (first compound 2.53 µM); 0.405 with AZ3146 + Bortezomib (first compound 8 µM); 0.236 with AZ3146 + Tozasertib (first compound 0.08 µM); 0.358 with AZ3146 + Tozasertib (first compound 0.253 µM). Further, the relative viability with AZ3146 + Tozasertib (first compound 0.8 µM) came out at 0.143; with AZ3146 + Tozasertib (first compound 2.53 µM), 0.191; with AZ3146 + Tozasertib (first compound 8 µM) it was 0.157; with AZ3146 + Pemetrexed (first compound 0.08 µM), 0.22; with AZ3146 + Pemetrexed (first compound 0.253 µM) it was 0.178; in the test with AZ3146 + Pemetrexed (first compound 0.8 µM), 0.188. Moreover, the relative viability turned out to be 0.204 with AZ3146 + Pemetrexed (first compound 2.53 µM) and 0.115 with AZ3146 + Pemetrexed (first compound 8 µM).
For NCI-H650, the relative viability with GSK-J4 + Dasatinib (first compound 0.5 µM) came out at 0.512; with GSK-J4 + Dasatinib (first compound 1.581 µM), 0.507; with GSK-J4 + Dasatinib (first compound 5 µM) it was 0.277; with GSK-J4 + Dasatinib (first compound 15.81 µM) it was 0.406; with GSK-J4 + Dasatinib (first compound 50 µM), 0.324; with AZ3146 + Bortezomib (first compound 0.08 µM) it was 0.519. Further, the relative viability with AZ3146 + Bortezomib (first compound 0.253 µM) was 0.691; with AZ3146 + Bortezomib (first compound 0.8 µM) it was 0.762; with AZ3146 + Bortezomib (first compound 2.53 µM), 0.999; with AZ3146 + Bortezomib (first compound 8 µM) it was 0.897; with AZ3146 + Tozasertib (first compound 0.08 µM), 0.491; with AZ3146 + Tozasertib (first compound 0.253 µM) it was 0.769. Besides, the relative viability with AZ3146 + Tozasertib (first compound 0.8 µM) stood at 0.75; in the test with AZ3146 + Tozasertib (first compound 2.53 µM), 0.794; with AZ3146 + Tozasertib (first compound 8 µM) it was 0.509; with AZ3146 + Pemetrexed (first compound 0.08 µM) it was 0.871; in the test with AZ3146 + Pemetrexed (first compound 0.253 µM), 0.747; with AZ3146 + Pemetrexed (first compound 0.8 µM), 0.78. For the same cell line, the relative viability with AZ3146 + Pemetrexed (first compound 2.53 µM) was 0.949; with AZ3146 + Pemetrexed (first compound 8 µM), 0.948.
In the case of NCI-H661, the relative viability with GSK-J4 + Dasatinib (first compound 0.5 µM) stood at 0.862; with GSK-J4 + Dasatinib (first compound 1.581 µM), 0.755; with GSK-J4 + Dasatinib (first compound 5 µM), 0.636; in the test with GSK-J4 + Dasatinib (first compound 15.81 µM), 0.641; with GSK-J4 + Dasatinib (first compound 50 µM), 0.649; with AZ3146 + Bortezomib (first compound 0.08 µM), 0.71. Further, the relative viability with AZ3146 + Bortezomib (first compound 0.253 µM) came to 0.893; with AZ3146 + Bortezomib (first compound 0.8 µM), 0.92; with AZ3146 + Bortezomib (first compound 2.53 µM) it was 0.922; with AZ3146 + Bortezomib (first compound 8 µM), 0.692; with AZ3146 + Tozasertib (first compound 0.08 µM), 0.359; with AZ3146 + Tozasertib (first compound 0.253 µM), 0.362. In addition, the relative viability was 0.357 in the test with AZ3146 + Tozasertib (first compound 0.8 µM); 0.347 in the test with AZ3146 + Tozasertib (first compound 2.53 µM); 0.358 in the test with AZ3146 + Tozasertib (first compound 8 µM); 0.939 with AZ3146 + Pemetrexed (first compound 0.08 µM); 0.894 with AZ3146 + Pemetrexed (first compound 0.253 µM); 0.956 with AZ3146 + Pemetrexed (first compound 0.8 µM). Further, the relative viability was determined as 0.92 in the test with AZ3146 + Pemetrexed (first compound 2.53 µM) and 0.818 with AZ3146 + Pemetrexed (first compound 8 µM).
NCI-H838: the relative viability in the test with GSK-J4 + Dasatinib (first compound 0.5 µM) came out at 0.325; with GSK-J4 + Dasatinib (first compound 1.581 µM), 0.24; in the test with GSK-J4 + Dasatinib (first compound 5 µM), 0.23; with GSK-J4 + Dasatinib (first compound 15.81 µM) it was 0.266; with GSK-J4 + Dasatinib (first compound 50 µM), 0.275; with AZ3146 + Bortezomib (first compound 0.08 µM), 0.908. Further, the relative viability in the test with AZ3146 + Bortezomib (first compound 0.253 µM) was found to be 0.832; with AZ3146 + Bortezomib (first compound 0.8 µM), 0.882; in the test with AZ3146 + Bortezomib (first compound 2.53 µM), 0.738; with AZ3146 + Bortezomib (first compound 8 µM), 0.302; with AZ3146 + Tozasertib (first compound 0.08 µM), 0.249; in the test with AZ3146 + Tozasertib (first compound 0.253 µM), 0.252. Besides, the relative viability in the test with AZ3146 + Tozasertib (first compound 0.8 µM) came to 0.254; with AZ3146 + Tozasertib (first compound 2.53 µM), 0.263; with AZ3146 + Tozasertib (first compound 8 µM), 0.183; with AZ3146 + Pemetrexed (first compound 0.08 µM) it was 0.233; with AZ3146 + Pemetrexed (first compound 0.253 µM), 0.239; with AZ3146 + Pemetrexed (first compound 0.8 µM), 0.283. The relative viability with AZ3146 + Pemetrexed (first compound 2.53 µM) was 0.269; with AZ3146 + Pemetrexed (first compound 8 µM) it was 0.211.
